In patent US20180055050A1 (priority 2016, published 2018):

Test system: Rice Blast
Parameters: species or system Magnaporthe oryzae
Conditions: in vivo

COc1ccnc(C(=O)N[C@H]2COC(=O)[C@H](Cc3ccccc3)[C@@H](OC(=O)C(C)C)[C@H](C)OC2=O)c1OCOC(=O)C(C)C [Compound I]
Flag Leaf (% INFECT): B (key: A: 1-25; B: 26-50; C: 51-75; D: 76-100; E: Not tested)
Panicles (% INCID): B (key: A: 1-25; B: 26-50; C: 51-75; D: 76-100; E: Not tested)
Panicles (% INFECT): B (key: A: 1-25; B: 26-50; C: 51-75; D: 76-100; E: Not tested)
